biological target: T1, myeloperoxidase (MPO) (Homo sapiens, UniProt P05164); experiment: MPO peroxidation assay (Amplex Red assay); type: biochemical; settings: not given
T1 sequence (P05164 49-745): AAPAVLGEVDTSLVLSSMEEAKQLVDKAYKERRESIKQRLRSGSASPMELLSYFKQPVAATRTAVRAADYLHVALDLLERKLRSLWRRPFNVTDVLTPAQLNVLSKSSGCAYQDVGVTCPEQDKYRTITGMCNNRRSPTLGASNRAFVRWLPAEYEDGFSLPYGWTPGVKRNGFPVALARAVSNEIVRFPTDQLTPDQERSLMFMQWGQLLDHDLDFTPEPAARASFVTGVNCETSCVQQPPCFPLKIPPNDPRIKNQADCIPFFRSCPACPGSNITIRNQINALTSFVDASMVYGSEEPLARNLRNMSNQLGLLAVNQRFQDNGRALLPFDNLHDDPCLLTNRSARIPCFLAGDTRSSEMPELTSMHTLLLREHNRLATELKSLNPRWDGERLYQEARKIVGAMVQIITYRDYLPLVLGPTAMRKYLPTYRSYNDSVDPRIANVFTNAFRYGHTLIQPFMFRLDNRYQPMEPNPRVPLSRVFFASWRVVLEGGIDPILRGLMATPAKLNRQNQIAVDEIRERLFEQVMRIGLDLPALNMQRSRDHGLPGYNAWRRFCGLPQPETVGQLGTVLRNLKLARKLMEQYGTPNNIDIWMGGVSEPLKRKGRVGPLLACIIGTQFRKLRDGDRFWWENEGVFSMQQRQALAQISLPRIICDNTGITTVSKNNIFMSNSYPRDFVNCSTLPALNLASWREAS
In short: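 MPO (200 pM) with 40 nM H2O2 was preincubated 10 min at room temperature with inhibitor in 100 mM KPi pH 7.4. A mix of Amplex Red (200 μM) and H2O2 (10 mM) was then added and resorufin fluorescence read kinetically for 15 min. Slopes over 180–540 s gave % inhibition and IC50 via a four-parameter Hill fit.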

With Nc1cc(OCc2ccccc2-n2cccn2)c2nn[nH]c2n1 [Example 255, 7-((2-(1H-Pyrazol-1-yl)benzyl)oxy)-3H-[1,2,3]triazolo[4,5-b]pyridin-5-amine] the IC50 was 101 to 999 nM.

same assay, conditions: MPO peroxidation, potency range class; read-out: Amplex Red IC50

Nc1cc(OCc2ccc(-n3ccnc3)cc2OC(F)(F)F)c2nn[nH]c2n1 [Example 244, 7-((4-(1H-Imidazol-1-yl)-2-(trifluoromethoxy)benzyl)oxy)-3H-[1,2,3]triazolo[4,5-b]pyridin-5-amine] and Nc1cc(OCc2ccc(-n3cccn3)cc2OC(F)(F)F)c2nn[nH]c2n1 [Example 257] fall in the same range of IC50: 1 to 100 nM for the first, 1 to 100 nM for the second.

N#Cc1cc(Br)ccc1COc1cc(N)nc2[nH]nnc12 [Example 245, 2-(((5-Amino-3H-[1,2,3]triazolo[4,5-b]pyridin-7-yl)oxy)methyl)-5-bromobenzonitrile] and N#Cc1ccccc1COc1cc(N)nc2[nH]nnc12 [Example 247, 2-(((5-amino-3H-[1,2,3]triazolo[4,5-b]pyridin-7-yl)oxy)methyl)benzonitrile] fall in the same range of IC50: 1 to 100 nM for the first, 1 to 100 nM for the second.

CS(=O)(=O)c1ccc(COc2cc(N)nc3[nH]nnc23)c(Cl)c1 [Example 246, 7-((2-chloro-4-(methylsulfonyl)benzyl)oxy)-3H-[1,2,3]triazolo[4,5-b]pyridin-5-amine] and CS(=O)(=O)c1ccc(COc2cc(N)nc3[nH]nnc23)c([N+](=O)[O-])c1 [Example 250, 7-((4-(methylsulfonyl)-2-nitrobenzyl)oxy)-3H-[1,2,3]triazolo[4,5-b]pyridin-5-amine] fall in the same range of IC50: 101 to 999 nM for the first, 101 to 999 nM for the second.

Nc1cc(OCc2cccc(SC(F)(F)F)c2)c2nn[nH]c2n1 [Example 248, 7-((3-((trifluoromethyl)thio)benzyl)oxy)-3H-[1,2,3]triazolo[4,5-b]pyridin-5-amine] and Nc1cc(OCc2ccc(-n3cncn3)cc2OC(F)(F)F)c2nn[nH]c2n1 [Example 267, 7-((4-(1H-1,2,4-triazol-1-yl)-2-(trifluoromethoxy)benzyl)oxy)-3H-[1,2,3]triazolo[4,5-b]pyridin-5-amine] fall in the same range of IC50: 1 to 100 nM for the first, 1 to 100 nM for the second.

Nc1cc(OCc2cc([N+](=O)[O-])ccc2Cl)c2nn[nH]c2n1 [Example 249, 7-((2-chloro-5-nitrobenzyl)oxy)-3H-[1,2,3]triazolo[4,5-b]pyridin-5-amine] and COc1cc(Cl)c(Cl)cc1COc1cc(N)nc2[nH]nnc12 [Example 252, 7-((4,5-Dichloro-2-methoxybenzyl)oxy)-3H-[1,2,3]triazolo[4,5-b]pyridin-5-amine] fall in the same range of IC50: 1 to 100 nM for the first, 1 to 100 nM for the second.

Compared with Cc1nc(-c2ccc(COc3cc(N)nc4[nH]nnc34)c(F)c2)no1 [Example 251, 7-((2-fluoro-4-(5-methyl-1,2,4-oxadiazol-3-yl)benzyl)oxy)-3H-[1,2,3]triazolo[4,5-b] pyridin-5-amine], Cc1cn(-c2ccc(COc3cc(N)nc4[nH]nnc34)c(C#N)c2)cn1 [Example 276, 2-(((5-amino-3H-[1,2,3]triazolo[4,5-b]pyridin-7-yl)oxy)methyl)-5-(4-methyl-1H-imidazol-1-yl)benzonitrile] is higher in IC50: 1 to 100 nM for the first, 101 to 999 nM for the second. The first is the more potent here.

First: Nc1cc(OCc2ccccc2-n2cncn2)c2nn[nH]c2n1 [Example 253, 7-((2-(1H-1,2,4-Triazol-1-yl)benzyl)oxy)-3H-[1,2,3]triazolo[4,5-b]pyridin-5-amine]
Second: Nc1cc(OCc2ccc(-n3cc4ccccc4n3)cc2OC(F)(F)F)c2nn[nH]c2n1 [Example 259, 7-((4-(2H-indazol-2-yl)-2-(trifluoromethoxy)benzyl)oxy)-3H-[1,2,3]triazolo[4,5-b]pyridin-5-amine]
The IC50 of the first is higher: 101 to 999 nM for the first, 1 to 100 nM for the second. The second is the more potent here.

Nc1cc(OCc2ccc(-n3ccccc3=O)cc2OC(F)(F)F)c2nn[nH]c2n1 [Example 256, 1-(4-(((5-amino-3H-[1,2,3]triazolo[4,5-b]pyridin-7-yl)oxy)methyl)-3-(trifluoromethoxy)phenyl) pyridin-2(1H)-one] and Nc1cc(OCc2ccc(-n3cnc4ccccc43)cc2OC(F)(F)F)c2nn[nH]c2n1 [Example 261, 7-((4-(1H-benzo[d]imidazol-1-yl)-2-(trifluoromethoxy)benzyl)oxy)-3H-[1,2,3] triazolo[4,5-b]pyridin-5-amine] fall in the same range of IC50: 101 to 999 nM for the first, 101 to 999 nM for the second.

Nc1cc(OCc2ccc(-n3ncc4ccccc43)cc2OC(F)(F)F)c2nn[nH]c2n1 [Example 258, 7-((4-(1H-indazol-1-yl)-2-(trifluoromethoxy)benzyl)oxy)-3H-[1,2,3]triazolo[4,5-b]pyridin-5-amine] and CS(=O)(=O)c1cc(-n2ncc3ccccc32)ccc1COc1cc(N)nc2[nH]nnc12 [Example 282, 7-((4-(1H-indazol-1-yl)-2-(methylsulfonyl)benzyl)oxy)-3H-[1,2,3]triazol[4,5-b] pyridin-5-amine] fall in the same range of IC50: 1 to 100 nM for the first, 1 to 100 nM for the second.

Compared with Nc1cc(OCc2ccc(-n3cnc(-c4ccccc4)c3)cc2OC(F)(F)F)c2nn[nH]c2n1 [Example 260, 7-((4-(4-phenyl-1H-imidazol-1-yl)-2-(trifluoromethoxy)benzyl)oxy)-3H-[1,2,3] triazolo[4,5-b]pyridin-5-amine], Cc1cn(-c2ccc(COc3cc(N)nc4[nH]nnc34)c(OC(F)(F)F)c2)cn1 [Example 273, 7-((4-(4-methyl-1H-imidazol-1-yl)-2-(trifluoromethoxy)benzyl)oxy)-3H-[1,2,3] triazolo[4,5-b]pyridin-5-amine] is higher in IC50: 1 to 100 nM for the first, 101 to 999 nM for the second. The first is the more potent here.

First: COC(=O)c1cn(-c2ccc(COc3cc(N)nc4[nH]nnc34)c(OC(F)(F)F)c2)cn1 [Example 264, methyl 1-(4-(((5-amino-3H-[1,2,3]triazolo[4,5-b]pyridin-7-yl)oxy)methyl)-3-(trifluoromethoxy)phenyl)-1H-imidazole-4-carboxylate]
Second: Nc1cc(OCc2ccc(-n3cnc(CO)c3)cc2OC(F)(F)F)c2nn[nH]c2n1 [Example 265, (1-(4-(((5-amino-3H-[1,2,3]triazolo[4,5-b]pyridin-7-yl)oxy)methyl)-3-(trifluoromethoxy)phenyl)-1H-imidazol-4-yl)methanol]
The IC50 of the first is higher: 101 to 999 nM for the first, 1 to 100 nM for the second. The second is the more potent here.

CN(C)Cc1cn(-c2ccc(COc3cc(N)nc4[nH]nnc34)c(OC(F)(F)F)c2)cn1 [Example 266, 7-((4-(4-((dimethylamino)methyl)-1H-imidazol-1-yl)-2-(trifluoromethoxy)benzyl)oxy)-3H-[1,2,3]triazolo[4,5-b]pyridin-5-amine] and Nc1cc(OCc2ccc(-n3cnc(C(F)(F)F)c3)cc2OC(F)(F)F)c2nn[nH]c2n1 [Example 272, 7-((2-(trifluoromethoxy)-4-(4-(trifluoromethyl)-1H-imidazol-1-yl)benzyl)oxy)-3H-[1,2,3]triazolo[4,5-b] pyridin-5-amine] fall in the same range of IC50: 101 to 999 nM for the first, 101 to 999 nM for the second.

Cc1nccn1-c1ccc(COc2cc(N)nc3[nH]nnc23)c(OC(F)(F)F)c1 [Example 268, 7-((4-(2-methyl-1H-imidazol-1-yl)-2-(trifluoromethoxy)benzyl)oxy)-3H-[1,2,3] triazolo[4,5-b]pyridin-5-amine] and N#Cc1cnn(-c2ccc(COc3cc(N)nc4[nH]nnc34)c(OC(F)(F)F)c2)c1 [Example 270, 1-(4-(((5-amino-3H-[1,2,3]triazolo[4,5-b]pyridin-7-yl)oxy)methyl)-3-(trifluoromethoxy)phenyl)-1H-pyrazole-4-carbonitrile] fall in the same range of IC50: 1 to 100 nM for the first, 1 to 100 nM for the second.

First: N#Cc1cc(-n2cnc3ccccc32)ccc1COc1cc(N)nc2[nH]nnc12 [Example 274, 2-(((5-amino-3H-[1,2,3]triazolo[4,5-b]pyridin-7-yl)oxy)methyl)-5-(1H-benzo[d]imidazol-1-yl)benzonitrile]
Second: Nc1cc(OCc2c(F)cc(-n3ncc4ccccc43)cc2F)c2nn[nH]c2n1 [Example 281, 7-((2,6-difluoro-4-(1H-indazol-1-yl)benzyl)oxy)-3H-[1,2,3]triazolo[4,5-b]pyridin-5-amine]
The IC50 of the first is higher: 101 to 999 nM for the first, 1 to 100 nM for the second. The second is the more potent here.

Nc1cc(OCc2c(F)cc(-n3ccnc3)cc2F)c2nn[nH]c2n1 [Example 279, 7-((2,6-difluoro-4-(1H-imidazol-1-yl)benzyl)oxy)-3H-[1,2,3]triazolo[4,5-b] pyridin-5-amine] and CS(=O)(=O)c1cc(-n2ccnc2)ccc1COc1cc(N)nc2[nH]nnc12 [Example 280, 7-((4-(1H-imidazol-1-yl)-2-(methylsulfonyl)benzyl)oxy)-3H-[1,2,3]triazolo[4,5-b] pyridin-5-amine] fall in the same range of IC50: 101 to 999 nM for the first, 101 to 999 nM for the second.

Nc1cc(OCc2ccc(-c3cccnc3)cc2OC(F)(F)F)c2nn[nH]c2n1 [Example 285, 7-((4-(Pyridin-3-yl)-2-(trifluoromethoxy)benzyl)oxy)-3H-[1,2,3]triazolo[4,5-b]pyridin-5-amine] and CNS(=O)(=O)c1ccc(-c2ccc(COc3cc(N)nc4[nH]nnc34)c(OC(F)(F)F)c2)cc1 [Example 286, 4′-(((5-amino-3H-[1,2,3]triazolo[4,5-b]pyridin-7-yl)oxy)methyl)-N-methyl-3′-(trifluoromethoxy)-[1,1′-biphenyl]-4-sulfonamide] fall in the same range of IC50: 1 to 100 nM for the first, 1 to 100 nM for the second.

Source: US10316035B2, “Triazolopyridine inhibitors of myeloperoxidase” (BRISTOL-MYERS SQUIBB COMPANY, priority 2015, dated 2019)
